Measured values from US6569902B2, “Nitrone inhibition of cancer development” (Oklahoma Medical Research Foundation, priority 2000, dated 2003).
Read-outs that look alike come from different tables or passages of the source.

Assays:
rats fed the CDAA diet = conditions: cited from earlier work
[1] = tested on: GST-P-positive lesions in livers of male Wistar rats fed the CDAA diet; test: Example 2: numbers and sizes of GST-P-positive liver lesions, CDAA diet for 16 weeks; type: in vivo, rat; conditions: for effect on the number or sizes of the GST-P-positive lesions: CDAA diet
Procedure: Animals. A total of 110 male Wistar rats were obtained at 5 weeks of age from Charles River Japan, Inc., Atsugi, Kanagawa, Japan. Experimentation began after a 1-week acclimation on a basal diet (CE-2 diet, Clea Japan, Meguro, Tokyo, Japan). Rats were housed 5 each in plastic cages with white flake bedding (Kansai Animal Corp., City of Kyoto, Kyoto, Japan) in a standard atmosphere (temperature, 25±3° C.; relative humidity, 55±8%; ventilation, 10-15/hour; and a 12-hour dark/light cycle). Free access to food and tap water was allowed throughout the acclimation and experimental periods.
Diets and chemicals. The CDAA diet and its control, a choline-supplemented, L-amino acid-defined (CSAA) diet (Nakae et al. 1992; and Nakae et al. 1990) were obtained from Dyets, Inc., Bethlehem, Pa. […] 2-Sulfoxy-PBN (2-SPBN) was purchased from Aldrich Chemical Co. (Milwaukee, Wis.).
(§1) Animal experiment. After acclimation, rats were divided equally into 22 groups consisting of 5 animals each. Animals in group 1 received the CDAA diet alone. […] Groups 5-7, 8-10, 11-13 and 14-16 received the CDAA diet containing the low, middle, and high doses of 4-OHPBN, 3-OHPBN, 2-OHPBN and 2-SPBN, respectively. Group 17 received the CSAA diet alone. […] All animals were sacrificed by exsanguination under light ether anesthesia 16 weeks after commencement, and the livers excised. Slices 5-mm-thick were taken from the left lateral, median and right lateral lobes of the livers, fixed in 10% neutrally-buffered formalin for 24 hours and then embedded in paraffin. Five serial 4-μm-thick sections were prepared from each fixed liver slice and used for histological and immunohistochemical assessment as described below. The remaining portions of the livers were immediately frozen under liquid nitrogen and stored at −80° C. until use.
(§2) Histological and immunohistochemical assessments. Histological assessment was performed using sections routinely stained with hematoxylin/eosin and Masson's trichrome procedures. Gradation of fibrosis was quantitatively evaluated in groups 1, 4, 7, 10, 13, 16 and 17 by calculating the percent area occupied by collagen fiber stained blue by Masson's trichrome method using an IPAP image analyzing system (Sumika Technoservice Corp., City of Osaka, Osaka, Japan). GST-P-positive lesions were visualized immunohistochemically. Lesions consisting of more than 6 cells were quantified using the IPAP system as described elsewhere (Kishida et al. 2000). The amount of apoptosis and the cellular proliferative activity were determined in groups 1, 4, 7, 10, 13, 16 and 17, using the double staining techniques by combination of the GST-P immunohistochemistry as above with the in situ terminal deoxynucleotidyl transferase-mediated dUTP-biotin nick end-labeling method (Gold et al. 1994) and the enhanced polymer one-step staining method for proliferating cell nuclear antigen (Tsutsumi et al. 1995), respectively. Numbers of apoptotic and proliferating hepatocytes among the 1000-5000 hepatocytes in GST-P-positive lesions and 5000 hepatocytes in surrounding tissue were counted under light microscopy to obtain percentages that are hereafter referred as apoptotic and proliferative indices, respectively.
(§3) Statistics. Inter-group differences in quantitative data for multiple groups were recognized to be significant, when p values smaller than 0.05 were obtained by the Dunnett multiple comparison test employed after one-way analysis of variance to determine the variation among the group means followed by the Bartlett's test to determine the homogeniety of variance.

[2] = tested on: livers of male Wistar rats fed the CDAA diet; test: Example 2: oxidative hepatocyte injuries (8-OHdG, TBARS); type: in vivo, rat; conditions: for nuclear DNA 8-OHdG content increased by CDAA diet feeding: all doses, CDAA diet 16 weeks
Source text: as §1
Determination of oxidative hepatocyte injuries. Levels of oxidative damage to the hepatocytes were determined on frozen liver samples. Oxidative damage to nuclear DNA was assessed as previously described, using the amount of 8-hydroxydeoxyguanosine (8-OHdG) to 10^6 deoxyguanosine (dG) ratio as a parameter (Nakae et al. 1995). Oxidative injury to extra-nuclear components was assessed as described elsewhere, by determining picomole malondialdehyde equivalent (MDA eq.) levels of 2-thiobarbituric acid-reacting substances (TBARS) per milligram protein (Nakae et al. 1990).
as §3

[3] = tested on: livers of male Wistar rats fed the CDAA diet; test: Example 2: histological liver injury (fibrosis, fatty liver); type: in vivo, rat; conditions: high dose 0.090%, CDAA diet 16 weeks
Source text: as §1, §2, §3

[4] = tested on: hepatocytes of male Wistar rats fed the CDAA diet; test: Example 2: apoptotic and proliferative indices in GST-P-positive lesions and surrounding tissue; type: in vivo, rat; conditions: high dose 0.090%
Source text: as §1, §2, §3

[5] = tested on: rat liver microsome peroxidation; conditions: read-out: IC50, inhibition of rat liver microsome peroxidation; cited from earlier work

CCCCCCCCCCCCCCCCCCOC1=C(O)[C@@H]([C@@H](O)CO)OC1=O [2-O-octadecylascorbic acid]
inhibition of rat hepatocarcinogenesis (rats fed the CDAA diet; chronic feeding in the CDAA diet (Mizumoto et al. 1994)): inhibits rat hepatocarcinogenesis by chronic feeding in the CDAA diet greater than its hydrophilic parent, L-ascorbic acid

CC(C)(C)[N+]([O-])=Cc1ccccc1O [2-OHPBN, 2-hydroxyphenyl N-tert-butylnitone]
effect on the number or sizes of the GST-P-positive lesions [1]: Neither 2-OHPBN nor 2-SPBN had any affect
nuclear DNA 8-OHdG content increased by CDAA diet feeding [2]: Neither 2-OHPBN nor 2-SPBN decreased
TBARS level enhanced by CDAA feeding ([2]; all three doses): Neither 2-OHPBN nor 2-SPBN affected
grade of fibrosis versus group 1 [3]: no affect
effect on apoptotic indices [4]: Neither 2-OHPBN nor 2-SPBN altered

CC(C)(C)[N+]([O-])=Cc1ccccc1S(=O)(=O)O [2-SPBN, 2-sulfoxyphenyl N-tert-butylnitone]
effect on the number or sizes of the GST-P-positive lesions [1]: Neither 2-OHPBN nor 2-SPBN had any affect
nuclear DNA 8-OHdG content increased by CDAA diet feeding [2]: Neither 2-OHPBN nor 2-SPBN decreased
TBARS level enhanced by CDAA feeding ([2]; all three doses): Neither 2-OHPBN nor 2-SPBN affected
grade of fibrosis versus group 1 [3]: no affect
effect on apoptotic indices [4]: Neither 2-OHPBN nor 2-SPBN altered

CC(C)(C)[N+]([O-])=Cc1cccc(O)c1 [3-OHPBN, 3-hydroxyphenyl N-tert-butylnitrone]
sizes of GST-P-positive lesions, % of the group 1 value ([1]; high dose 0.090% in CDAA diet): 9%
nuclear DNA 8-OHdG content increased by CDAA diet feeding [2]: significantly inhibited
TBARS level enhanced by CDAA feeding ([2]; high dose 0.090% only): significantly inhibited
grade of fibrosis versus group 1 [3]: significantly lower
apoptotic index in the surrounding tissue, % of the group 1 value [4]: about 40%

CC(C)(C)[N+]([O-])=Cc1ccc(O)cc1 [4-OHPBN, 4-hydroxyphenyl N-tert-butylnitrone]
sizes of GST-P-positive lesions, % of the group 1 value ([1]; high dose 0.090% in CDAA diet): 18%
sizes of GST-P-positive lesions, % of the group 1 value ([1]; low dose 0.009% in CDAA diet): 24%
sizes of GST-P-positive lesions, % of the group 1 value ([1]; middle dose 0.045% in CDAA diet): 19%
nuclear DNA 8-OHdG content increased by CDAA diet feeding [2]: significantly inhibited
TBARS level enhanced by CDAA feeding ([2]; all three doses): significantly exerted an effect
grade of fibrosis versus group 1 [3]: significantly lower
apoptotic index in the surrounding tissue, % of the group 1 value [4]: about 40%
proliferative index in the lesions, % of the group 1 value [4]: approximately 31%
proliferative index in the surrounding tissue, % of the group 1 value [4]: about 49%

CC(=O)Oc1ccccc1C(=O)O [Acetylsalicylic acid]
effect on nodule size, nodule number and 8-OHdG content (rats fed the CDAA diet; not nearly as potent as PBN): some effect

Cc1c(C)c2c(c(C)c1O)CC[C@@](C)(CCC[C@H](C)CCC[C@H](C)CCCC(C)C)O2 [Alpha tocopherol]
effect on any of the parameters (rats fed the CDAA diet; rat, in vivo): very little effect

Cc1cc(C(C)(C)C)c(O)c(C(C)(C)C)c1 [BHT]
IC50 [5]: 6 µM

O=C(CBr)c1ccc(Br)cc1 [BPB, p-bromophenocybromide]
activity in suppressing the size of the nodules (rats fed the CDAA diet; rat, in vivo): little activity

CCCCCCCCCCCCCCCCCCOC1=C(O)C([C@@H](O)CO)OC1=O (stereo partly shown) [CV3611]
lowering of nodule size (rats fed the CDAA diet; 0.05% level): 44%

c1ccc(Nc2ccc(Nc3ccccc3)cc2)cc1 [N,N′-diphenyl-p-phenylenediamine]
effect on sizes and numbers of GST-P-positive lesions (rats fed the CDAA diet; livers of rats fed the CDAA diet (Nakae et al. 1994)): reduces the sizes of GST-P-positive lesions without affecting their numbers

CC(Cc1ccc(O)c(O)c1)C(C)Cc1ccc(O)c(O)c1 (stereo not shown) [NGDA, nordihydroguaiaric acid]
lowering of nodule size (rats fed the CDAA diet; 0.1% level): 39%

Cc1c(C)c2c(c(C)c1O)CCC(C)(C(=O)O)O2 (stereo not shown) [Trolox]
effect on any of the parameters (rats fed the CDAA diet; rat, in vivo): very little effect
IC50 [5]: 40 µM
